# Measured values published in patent US12103926B2, “Compounds for treating huntington's disease” (PTC THERAPEUTICS, INC., priority 2018, dated 2024).
# pIC50: −log10 of the molar value.
# System: Endogenous Huntingtin Protein
# Test: Endogenous Huntingtin Protein Assay (ELISA-based MSD electrochemiluminescence assay)
# Assay type: cell-based
# Details: MW1 (expanded polyglutamine) or MAB2166 capture antibody; lysates
# Procedure: Compounds of Formula (I) were tested using the Meso Scale Discovery (MSD) Assay provided in International Application No. PCT/US2016/066042, filed on Dec. 11, 2016 and claiming priority to United States Provisional Application U.S. 62/265,652 filed on Dec. 10, 2015, the entire contents of which are incorporated herein by reference.
# The Endogenous Huntingtin Protein assay used in Example 1 was developed using the ELISA-based MSD electrochemiluminescence assay platform.
# Endogenous Huntingtin Protein Assay
# Meso Scale Discovery (MSD) 96-well or 384-well plates were coated overnight at 4° C. with MW1 (expanded polyglutamine) or MAB2166 monoclonal antibody (for capture) at a concentration of 1 μg/mL in PBS (30 μL per well). Plates were then washed three times with 300 μL wash buffer (0.05% Tween-20 in PBS) and blocked (100 μL blocking buffer; 5% BSA in PBS) for 4-5 hours at room temperature with rotational shaking and then washed three times with wash buffer.
# Samples (25 μL) were transferred to the antibody-coated MSD plate and incubated overnight at 4° C. After removal of the lysates, the plate was washed three times with wash buffer, and 25 μL of #5656S (Cell signaling; rabbit monoclonal) secondary antibody (diluted to 0.25 μg/mL in 0.05% Tween-20 in blocking buffer) was added to each well and incubated with shaking for 1 Hour at room temperature. Following incubation with the secondary antibody, the wells were rinsed with wash buffer after which 25 μL of goat anti-rabbit SULFO TAG secondary detection antibody (required aspect of the MSD system) (diluted to 0.25 μg/mL in 0.05% Tween-20 in blocking buffer) was added to each well and incubated with shaking for 1 hour at room temperature. After rinsing three times with wash buffer, 150 μL of read buffer T with surfactant (MSD) were added to each empty well, and the plate was imaged on a SI 6000 imager (MSD) according to manufacturers' instructions provided for 96- or 384-well plates.
row,SMILES,pIC50
1,"CC(C)(C)NC1CCN(c2cnc(-c3ccc(-c4cn[nH]c4)c(F)c3F)cn2)C1 (stereo not drawn) [Cpd 63, N-tert-butyl-1-{5-[2,3-difluoro-4-(1H-pyrazol-4-yl)phenyl]pyrazin-2-yl}pyrrolidin-3-amine]",6.30 to 7.00
2,"Cc1cn(-c2ccc(-c3cnc(N(C)C4CC(C)(C)NC(C)(C)C4)cn3)c(F)c2F)cn1 [Cpd 41, 5-[2,3-difluoro-4-(4-methyl-1H-imidazol-1-yl)phenyl]-N-methyl-N-(2,2,6,6-tetramethylpiperidin-4-yl)pyrazin-2-amine]",6.00 to 6.30
3,"CN(c1cnc(-c2ccc(-c3cn[nH]c3C(F)(F)F)cc2O)cn1)C1CC(C)(C)NC(C)(C)C1 [Cpd 9, 2-{5-[methyl(2,2,6,6-tetramethylpiperidin-4-yl)amino]pyrazin-2-yl}-5-[5-(trifluoromethyl)-1H-pyrazol-4-yl]phenol]",5.52 to 6.00
4,"Oc1cc(-c2cn[nH]c2)ccc1-c1cnc(OC2CC3CCC(C2)N3)cn1 (stereo not drawn) [Cpd 25, 2-[5-(8-azabicyclo[3.2.1]oct-3-yloxy)pyrazin-2-yl]-5-(1H-pyrazol-4-yl)phenol]",5.05 to 5.52
5,"CC(C)(C)NC1CCN(c2cnc(-c3ccc(-c4cn[nH]c4)cc3O)cn2)C1 (stereo not drawn) [Cpd 52, 2-{5-[3-(tert-butylamino)pyrrolidin-1-yl]pyrazin-2-yl}-5-(1H-pyrazol-4-yl)phenol]",> 7.00
6,"CN(c1cnc(-c2ccc(-c3c[nH]nc3F)cc2O)cn1)C1CC(C)(C)NC(C)(C)C1 [Cpd 43, 5-(3-fluoro-1H-pyrazol-4-yl)-2-{5-[methyl(2,2,6,6-tetramethylpiperidin-4-yl)amino]pyrazin-2-yl}phenol]",6.30 to 7.00
7,"Cn1cc(-c2ccc(-c3cnc(N4CCC(NC(C)(C)C)C4)cn3)c(O)c2)cn1 (stereo not drawn) [Cpd 62, 2-{5-[3-(tert-butylamino)pyrrolidin-1-yl]pyrazin-2-yl}-5-(1-methyl-1H-pyrazol-4-yl)phenol]",> 7.00
8,"CN(c1cnc(-c2cc(F)c(-c3cn[nH]c3)cc2O)cn1)C1CC(C)(C)NC(C)(C)C1 [Cpd 22, 4-fluoro-2-{5-[methyl(2,2,6,6-tetramethylpiperidin-4-yl)amino]pyrazin-2-yl}-5-(1H-pyrazol-4-yl)phenol]",> 7.00
9,"CC1(C)CC(Nc2cnc(-c3ccc(-n4nccn4)cc3O)cn2)CC(C)(C)N1 [Cpd 51, 2-{5-[(2,2,6,6-tetramethylpiperidin-4-yl)amino]pyrazin-2-yl}-5-(2H-1,2,3-triazol-2-yl)phenol]",6.00 to 6.30
10,"Oc1cc(-c2cn[nH]c2)ccc1-c1cnc(N2CC3(CCNC3)C2)cn1 [Cpd 21, 2-[5-(2,6-diazaspiro[3.4]octan-2-yl)pyrazin-2-yl]-5-(1H-pyrazol-4-yl)phenol]",5.52 to 6.00

# Next, values leading:
row,pIC50,SMILES
1,> 7.00,"COc1cc(-c2ccc(-c3cnc(NC4CC(C)(C)NC(C)(C)C4)cn3)c(O)c2)ncn1 [Cpd 49, 5-(6-methoxypyrimidin-4-yl)-2-{5-[(2,2,6,6-tetramethylpiperidin-4-yl)amino]pyrazin-2-yl}phenol]"
2,> 7.00,"CC1(C)CC(Nc2cnc(-c3ccc(-c4cn[nH]c4)cc3O)cn2)CC(C)(C)N1 [Cpd 46, 5-(1H-pyrazol-4-yl)-2-{5-[(2,2,6,6-tetramethylpiperidin-4-yl)amino]pyrazin-2-yl}phenol]"
3,5.05 to 5.52,"CC1(C)CC(Nc2cnc(-c3ccc(-c4ccccn4)cc3O)cn2)CC(C)(C)N1 [Cpd 48, 5-(pyridin-2-yl)-2-{5-[(2,2,6,6-tetramethylpiperidin-4-yl)amino]pyrazin-2-yl}phenol]"
4,6.30 to 7.00,"CC1(C)CC(Nc2cnc(-c3ccc(-c4ccncc4)cc3O)cn2)CC(C)(C)N1 [Cpd 44, 5-(pyridin-4-yl)-2-{5-[(2,2,6,6-tetramethylpiperidin-4-yl)amino]pyrazin-2-yl} phenol]"
5,6.00 to 6.30,"Cn1ccc(-c2ccc(-c3cnc(NC4CC(C)(C)NC(C)(C)C4)cn3)c(O)c2)n1 [Cpd 55, 5-(1-methyl-1H-pyrazol-3-yl)-2-{5-[(2,2,6,6-tetramethylpiperidin-4-yl)amino]pyrazin-2-yl}phenol]"
